The values below come from patent publication US8735414B2 (priority 2009, dated 2014).

By IC50 is commonly meant the concentration needed to halve the response being measured. In general, melting point refers to the temperature, or range, at which the solid turns liquid.

Data set [1] concerns bicistronic HCV replicon (replicon RNA, GenBank Accession No. AJ242654). Description: HCV Replicon Assay. The settings on record: Hepatitis C virus, 72 h, read-out: Replicon IC50. The format is cell-based. In general terms: Replicon systems follow genome replication, usually without infectious particles.

`C[C@H](NS(=O)(=O)c1ccc(-c2c(C#N)c3ccc(F)cc3n2C2CCCC2)nc1)C(F)(F)F` [compound 396, 6-(3-cyano-1-cyclopentyl-6-fluoro-1H-indol-2-yl)-N-[(2S)-1,1,1-trifluoropropan-2-yl]pyridine-3-sulfonamide]: the melting point lay in the range of 132 to 133 °C. Besides, in data set [1], the IC50 is less than 0.5 µM.
The like results for `C[C@H](NS(=O)(=O)c1ccc(-c2c(C#N)c3ccc(F)cc3n2CC2CC2)nc1)C(F)(F)F` [compound 397, 6-[3-cyano-1-(cyclopropylmethyl)-6-fluoro-1H-indol-2-yl]-N-[(2S)-1,1,1-trifluoropropan-2-yl]pyridine-3-sulfonamide] were, in that order, 174 to 175 °C and less than 0.5 µM.
For `C[C@H](NS(=O)(=O)c1cnc(-c2c(C#N)c3ccc(OC(F)F)cc3n2CC2CC2)nc1)C(F)(F)F` [compound 398, 2-[3-cyano-1-(cyclopropylmethyl)-6-(difluoromethoxy)-1H-indol-2-yl]-N-[(2S)-1,1,1-trifluoropropan-2-yl]pyrimidine-5-sulfonamide] the same measures were 211 to 212 °C and less than 0.5 µM.
The like results for `CC(C)n1c(-c2ncc(S(=O)(=O)N[C@@H](C)C(F)(F)F)cn2)c(C#N)c2ccc(OC(F)F)cc21` [compound 399, 2-[3-cyano-6-(difluoromethoxy)-1-(propan-2-yl)-1H-indol-2-yl]-N-[(2S)-1,1,1-trifluoropropan-2-yl]pyrimidine-5-sulfonamide] were, in that order, 219 to 221 °C and less than 0.5 µM.
The molecule `CCCn1c(-c2ncc(S(=O)(=O)N[C@@H](C)C(F)(F)F)cn2)c(C#N)c2ccc(OC(F)F)cc21` [compound 400, 2-[3-cyano-6-(difluoromethoxy)-1-propyl-1H-indol-2-yl]-N-[(2S)-1,1,1-trifluoropropan-2-yl]pyrimidine-5-sulfonamide] returned a melting point of 207 to 208 °C. Also, the IC50 in data set [1] is less than 0.5 µM.
For `C[C@H](NS(=O)(=O)c1cnc(-c2c(C#N)c3ccc(C4CC4)cc3n2C2CCCC2)nc1)C(F)(F)F` [compound 401, 2-(3-cyano-1-cyclopentyl-6-cyclopropyl-1H-indol-2-yl)-N-[(2S)-1,1,1-trifluoropropan-2-yl]pyrimidine-5-sulfonamide] the same measures were 238 to 239 °C and less than 0.5 µM.
In turn, `Cc1ccc2c(C#N)c(-c3ncc(S(=O)(=O)N[C@@H](C)C(F)(F)F)cn3)n(CC3CC3)c2c1` [compound 402, 2-[3-cyano-1-(cyclopropylmethyl)-6-methyl-1H-indol-2-yl]-N-[(2S)-1,1,1-trifluoropropan-2-yl]pyrimidine-5-sulfonamide] yielded a melting point of 259 to 260 °C. The IC50 in data set [1] was less than 0.5 µM.
The like results for `Cc1ccc2c(C#N)c(-c3ncc(S(=O)(=O)N[C@@H](C)C(F)(F)F)cn3)n(C(C)C)c2c1` [compound 403, 2-[3-cyano-6-methyl-1-(propan-2-yl)-1H-indol-2-yl]-N-[(2S)-1,1,1-trifluoropropan-2-yl]pyrimidine-5-sulfonamide] were, in that order, 235 to 236 °C and 0.5 to 2 µM.
The like results for `Cc1ccc2c(C#N)c(-c3ncc(S(=O)(=O)N[C@@H](C)C(F)(F)F)cn3)n(C3CCCC3)c2c1` [compound 404, 2-(3-cyano-1-cyclopentyl-6-methyl-1H-indol-2-yl)-N-[(2S)-1,1,1-trifluoropropan-2-yl]pyrimidine-5-sulfonamide] were, in that order, 223 to 224 °C and less than 0.5 µM.
In the case of `COc1ccc2c(C#N)c(-c3ncc(S(=O)(=O)N[C@@H](C)C(F)(F)F)cn3)n(C3CCC3)c2c1` [compound 405, 2-(3-cyano-1-cyclobutyl-6-methoxy-1H-indol-2-yl)-N-[(2S)-1,1,1-trifluoropropan-2-yl]pyrimidine-5-sulfonamide], the melting point is 254 to 255 °C. Besides, in data set [1], the IC50 was less than 0.5 µM.
Consider `COc1ccc2c(C#N)c(-c3ncc(S(=O)(=O)N[C@@H](C)C(F)(F)F)cn3)n(C3CCCC3)c2c1` [compound 406, 2-(3-cyano-1-cyclopentyl-6-methoxy-1H-indol-2-yl)-N-[(2S)-1,1,1-trifluoropropan-2-yl]pyrimidine-5-sulfonamide], for which the melting point lay within 211 to 212 °C. Further, the IC50 in data set [1] was less than 0.5 µM.
For `Cc1cc2c(cc1F)c(C#N)c(-c1ccc(S(=O)(=O)NC(CF)CF)cn1)n2C1CCCC1` [compound 407, 6-(3-cyano-1-cyclopentyl-5-fluoro-6-methyl-1H-indol-2-yl)-N-(1,3-difluoropropan-2-yl)pyridine-3-sulfonamide] the same measures were 211 to 213 °C and less than 0.5 µM.
`Cc1cc2c(cc1F)c(C#N)c(-c1ccc(S(=O)(=O)N[C@@H](C)C(F)(F)F)cn1)n2C1CCCC1` [compound 408, 6-(3-cyano-1-cyclopentyl-5-fluoro-6-methyl-1H-indol-2-yl)-N-[(2S)-1,1,1-trifluoropropan-2-yl]pyridine-3-sulfonamide] gave a melting point of 168 to 171 °C. For the same molecule, the IC50 in data set [1] was less than 0.5 µM.
The like results for `C[C@H](NS(=O)(=O)c1ccc(-c2c(C#N)c3cc(F)ccc3n2C2CCCCC2)nc1)C(F)(F)F` [compound 410, 6-(3-cyano-1-cyclohexyl-5-fluoro-1H-indol-2-yl)-N-[(2S)-1,1,1-trifluoropropan-2-yl]pyridine-3-sulfonamide] were, in that order, 209 to 211 °C and less than 0.5 µM.
Take `C[C@H](NS(=O)(=O)c1cnc(-c2c(C#N)c3ccc(F)cc3n2C2CCCCC2)nc1)C(F)(F)F` [compound 411, 2-(3-cyano-1-cyclohexyl-6-fluoro-1H-indol-2-yl)-N-[(2S)-1,1,1-trifluoropropan-2-yl]pyrimidine-5-sulfonamide]: the melting point was 224 to 226 °C. Also, the IC50 in data set [1] lay within 0.5 to 2 µM.
The like results for `C[C@@H](NS(=O)(=O)c1ccc(-c2c(C#N)c3cc(F)ccc3n2C2C=CCCC2)nc1)C(F)(F)F` (stereo partly drawn) [compound 412, 6-[3-cyano-1-(cyclohex-2-en-1-yl)-5-fluoro-1H-indol-2-yl]-N-[(2R)-1,1,1-trifluoropropan-2-yl]pyridine-3-sulfonamide] were, in that order, 187 to 188 °C and less than 0.5 µM.
Regarding `C[C@H](NS(=O)(=O)c1ccc(-c2c(C#N)c3cc(F)ccc3n2C2C=CCCC2)nc1)C(F)(F)F` (stereo partly drawn) [compound 413, 6-[3-cyano-1-(cyclohex-2-en-1-yl)-5-fluoro-1H-indol-2-yl]-N-[(2S)-1,1,1-trifluoropropan-2-yl]pyridine-3-sulfonamide], the melting point fell in the range of 186 to 187 °C. Besides, in data set [1], the IC50 is less than 0.5 µM.
Regarding `Cc1ccc2c(c1)c(C#N)c(-c1ncc(S(=O)(=O)N[C@@H](C)C(F)(F)F)cn1)n2C1CCC1` [compound 414, 2-(3-cyano-1-cyclobutyl-5-methyl-1H-indol-2-yl)-N-[(2S)-1,1,1-trifluoropropan-2-yl]pyrimidine-5-sulfonamide], the melting point lay in the range of 190 to 195 °C. Moreover, the IC50 in data set [1] was less than 0.5 µM.
For `CC(C)NS(=O)(=O)c1cnc(-c2c(C#N)c3cc(F)ccc3n2C2CCC2)nc1` [compound 416, 2-(3-cyano-1-cyclobutyl-5-fluoro-1H-indol-2-yl)-N-(propan-2-yl)pyrimidine-5-sulfonamide] the same measures were 195 to 200 °C and less than 0.5 µM.
Molecule `C[C@H](NS(=O)(=O)c1cnc(-c2c(C#N)c3ccc(Cl)cc3n2C2CCCC2)nc1)C(F)(F)F` [compound 417, 2-(6-chloro-3-cyano-1-cyclopentyl-1H-indol-2-yl)-N-[(2S)-1,1,1-trifluoropropan-2-yl]pyrimidine-5-sulfonamide] came in with a melting point of 220 to 224 °C. Further, the IC50 in data set [1] was in the range of 0.5 to 2 µM.
The like results for `CC(C)n1c(-c2ncc(S(=O)(=O)N[C@@H](C)C(F)(F)F)cn2)c(C#N)c2ccc(Cl)cc21` [compound 418, 2-[6-chloro-3-cyano-1-(propan-2-yl)-1H-indol-2-yl]-N-[(2S)-1,1,1-trifluoropropan-2-yl]pyrimidine-5-sulfonamide] were, in that order, 241 to 248 °C and 0.5 to 2 µM.
For `C[C@H](NS(=O)(=O)c1cnc(-c2c(C#N)c3cc(Cl)ccc3n2C2CCCC2)nc1)C(F)(F)F` [compound 419, 2-(5-chloro-3-cyano-1-cyclopentyl-1H-indol-2-yl)-N-[(2S)-1,1,1-trifluoropropan-2-yl]pyrimidine-5-sulfonamide] the same measures were 243 to 249 °C and 0.5 to 2 µM.
`Cc1ccc2c(C#N)c(-c3ccc(S(=O)(=O)N[C@@H](C)C(F)(F)F)cn3)n(C3CCC3)c2c1F` [compound 421, 6-(3-cyano-1-cyclobutyl-7-fluoro-6-methyl-1H-indol-2-yl)-N-[(2S)-1,1,1-trifluoropropan-2-yl]pyridine-3-sulfonamide]: the melting point was 210 to 220 °C. Also, the IC50 in data set [1] was less than 0.5 µM.
For `Cc1ccc2c(C#N)c(-c3ccc(S(=O)(=O)NC(CF)CF)cn3)n(C3CCC3)c2c1F` [compound 422, 6-(3-cyano-1-cyclobutyl-7-fluoro-6-methyl-1H-indol-2-yl)-N-(1,3-difluoropropan-2-yl)pyridine-3-sulfonamide] the same measures were 186 to 201 °C and less than 0.5 µM.
The like results for `Cc1ccc2c(C#N)c(-c3ccc(S(=O)(=O)NC(CF)CF)cn3)n(C3CCCC3)c2c1F` [compound 423, 6-(3-cyano-1-cyclopentyl-7-fluoro-6-methyl-1H-indol-2-yl)-N-(1,3-difluoropropan-2-yl)pyridine-3-sulfonamide] were, in that order, 211 to 216 °C and less than 0.5 µM.
For `Cc1ccc2c(C#N)c(-c3ccc(S(=O)(=O)N[C@@H](C)C(F)(F)F)cn3)n(C3CCCC3)c2c1F` [compound 424, 6-(3-cyano-1-cyclopentyl-7-fluoro-6-methyl-1H-indol-2-yl)-N-[(2S)-1,1,1-trifluoropropan-2-yl]pyridine-3-sulfonamide] the same measures were 191 to 195 °C and less than 0.5 µM.
